Experimental data reported in PubChem BioAssay AID1963832 (Molecular Pharmacology Branch, DTP, NCI, 2024).

System: 885724-159-R-J1-PDC complex spheroid viability
Experiment: Anticancer human tumor 885724-159-R-J1-PDC patient-derived pancreatic adenocarcinoma cell line growth inhibition [POLQ]
Conditions: for IC50: curve of first compound; for viability, T/C: stronger effect = lower value
How it was run: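 Growth inhibition in 3D: complex spheroids (tumor PDC, HUVEC, MSC) treated with POLQ inhibitor combinations; where Cmax unknown, highest tested concentration 10 microM, except SN-38 at 1 microM.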

[1] = second compound 0.0316 µM, first compound 0.0316 µM
[2] = second compound 0.0316 µM, first compound 0.1 µM
[3] = second compound 0.0316 µM, first compound 0.316 µM
[4] = second compound 0.0316 µM, first compound 1 µM
[5] = second compound 0.0316 µM, first compound 3.16 µM
[6] = second compound 0.0316 µM, first compound 10 µM
[7] = second compound 0.1 µM, first compound 0.0316 µM
[8] = second compound 0.1 µM, first compound 0.1 µM
[9] = second compound 0.1 µM, first compound 0.316 µM
[10] = second compound 0.1 µM, first compound 1 µM
[11] = second compound 0.1 µM, first compound 3.16 µM
[12] = second compound 0.1 µM, first compound 10 µM
[13] = second compound 0.316 µM, first compound 0.0316 µM
[14] = second compound 0.316 µM, first compound 0.1 µM
[15] = second compound 0.316 µM, first compound 0.316 µM
[16] = second compound 0.316 µM, first compound 1 µM
[17] = second compound 0.316 µM, first compound 3.16 µM
[18] = second compound 0.316 µM, first compound 10 µM
[19] = second compound 1 µM, first compound 0.0316 µM
[20] = second compound 1 µM, first compound 0.1 µM
[21] = second compound 1 µM, first compound 0.316 µM
[22] = second compound 1 µM, first compound 1 µM
[23] = second compound 1 µM, first compound 3.16 µM
[24] = second compound 1 µM, first compound 10 µM
[25] = second compound 3.16 µM, first compound 0.0316 µM
[26] = second compound 3.16 µM, first compound 0.1 µM
[27] = second compound 3.16 µM, first compound 0.316 µM
[28] = second compound 3.16 µM, first compound 1 µM
[29] = second compound 3.16 µM, first compound 3.16 µM
[30] = second compound 3.16 µM, first compound 10 µM
[31] = second compound 10 µM, first compound 0.0316 µM
[32] = second compound 10 µM, first compound 0.1 µM
[33] = second compound 10 µM, first compound 0.316 µM
[34] = second compound 10 µM, first compound 1 µM
[35] = second compound 10 µM, first compound 3.16 µM
[36] = second compound 10 µM, first compound 10 µM
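Further: spheroids exposed to compounds for 7 days.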

CCc1cc2c(N3CCc4c(cc(Cn5ccnc5)cc4-c4cn(C)nc4C(F)(F)F)C3=O)ccnc2c(OC)n1 + Nc1ccc(C#CCN(C(=O)Cc2ncc(C(F)(F)F)cc2C(F)(F)F)c2ccc(F)cc2)nn1
IC50 (second compound 0.0316 µM): > 10 µM
IC50 (second compound 0.1 µM): > 10 µM
IC50 (second compound 0.316 µM): > 10 µM
IC50 (second compound 1 µM): > 10 µM
IC50 (second compound 3.16 µM): > 10 µM
IC50 (second compound 10 µM): > 10 µM
viability, T/C [1]: 81.6%
viability, T/C [2]: 85.8%
viability, T/C [3]: 90.6%
viability, T/C [4]: 90%
viability, T/C [5]: 73.5%
viability, T/C [6]: 64.4%
viability, T/C [7]: 78.7%
viability, T/C [8]: 81.9%
viability, T/C [9]: 79.6%
viability, T/C [10]: 84.7%
viability, T/C [11]: 86.6%
viability, T/C [12]: 67.6%
viability, T/C [13]: 86.5%
viability, T/C [14]: 86.6%
viability, T/C [15]: 85.7%
viability, T/C [16]: 80%
viability, T/C [17]: 83.8%
viability, T/C [18]: 69.8%
viability, T/C [19]: 88.9%
viability, T/C [20]: 74.2%
viability, T/C [21]: 78.5%
viability, T/C [22]: 80.8%
viability, T/C [23]: 80.1%
viability, T/C [24]: 70.8%
viability, T/C [25]: 85.6%
viability, T/C [26]: 74.2%
viability, T/C [27]: 77%
viability, T/C [28]: 81.4%
viability, T/C [29]: 79.5%
viability, T/C [30]: 68.1%
viability, T/C [31]: 90.7%
viability, T/C [32]: 80.7%
viability, T/C [33]: 82.2%
viability, T/C [34]: 83.8%
viability, T/C [35]: 81.5%
viability, T/C [36]: 68.3%

COc1ccc([C@@H](O)c2cc(-c3ncnc4cc(N5CCOCC5)ccc34)c(F)cc2Cl)nn1 + Nc1ccc(C#CCN(C(=O)Cc2ncc(C(F)(F)F)cc2C(F)(F)F)c2ccc(F)cc2)nn1
IC50 (second compound 0.0316 µM): 3.7 µM
IC50 (second compound 0.1 µM): 3.83 µM
IC50 (second compound 0.316 µM): 4.24 µM
IC50 (second compound 1 µM): 4.29 µM
IC50 (second compound 3.16 µM): 3.94 µM
IC50 (second compound 10 µM): 4.85 µM
viability, T/C [1]: 83.2%
viability, T/C [2]: 105%
viability, T/C [3]: 73.6%
viability, T/C [4]: 74.9%
viability, T/C [5]: 52.3%
viability, T/C [6]: 33.1%
viability, T/C [7]: 100%
viability, T/C [8]: 89.6%
viability, T/C [9]: 84.4%
viability, T/C [10]: 75.1%
viability, T/C [11]: 51%
viability, T/C [12]: 32.9%
viability, T/C [13]: 98.7%
viability, T/C [14]: 103%
viability, T/C [15]: 86%
viability, T/C [16]: 73%
viability, T/C [17]: 57.5%
viability, T/C [18]: 32.8%
viability, T/C [19]: 92.8%
viability, T/C [20]: 86.3%
viability, T/C [21]: 81.5%
viability, T/C [22]: 69.5%
viability, T/C [23]: 57.5%
viability, T/C [24]: 33.3%
viability, T/C [25]: 91.5%
viability, T/C [26]: 93.9%
viability, T/C [27]: 82.9%
viability, T/C [28]: 67.8%
viability, T/C [29]: 56%
viability, T/C [30]: 33.5%
viability, T/C [31]: 96.7%
viability, T/C [32]: 89.4%
viability, T/C [33]: 87.4%
viability, T/C [34]: 70.6%
viability, T/C [35]: 59.1%
viability, T/C [36]: 36.6%

Cn1ncnc1[C@H]1c2n[nH]c(=O)c3cc(F)cc(c23)N[C@@H]1c1ccc(F)cc1 + Nc1ccc(C#CCN(C(=O)Cc2ncc(C(F)(F)F)cc2C(F)(F)F)c2ccc(F)cc2)nn1
IC50 (second compound 0.0316 µM): > 0.1 µM
IC50 (second compound 0.1 µM): > 0.1 µM
IC50 (second compound 0.316 µM): > 0.1 µM
IC50 (second compound 1 µM): > 0.1 µM
IC50 (second compound 3.16 µM): > 0.1 µM
IC50 (second compound 10 µM): > 0.1 µM
viability, T/C (second compound 0.0316 µM, first compound 0.000316 µM): 95.1%
viability, T/C (second compound 0.0316 µM, first compound 0.001 µM): 86.4%
viability, T/C (second compound 0.0316 µM, first compound 0.00316 µM): 90.3%
viability, T/C (second compound 0.0316 µM, first compound 0.01 µM): 90.7%
viability, T/C [1]: 88.1%
viability, T/C [2]: 86.8%
viability, T/C (second compound 0.1 µM, first compound 0.000316 µM): 104%
viability, T/C (second compound 0.1 µM, first compound 0.001 µM): 86.5%
viability, T/C (second compound 0.1 µM, first compound 0.00316 µM): 90.1%
viability, T/C (second compound 0.1 µM, first compound 0.01 µM): 88.1%
viability, T/C [7]: 93.1%
viability, T/C [8]: 80.4%
viability, T/C (second compound 0.316 µM, first compound 0.000316 µM): 99.9%
viability, T/C (second compound 0.316 µM, first compound 0.001 µM): 94.1%
viability, T/C (second compound 0.316 µM, first compound 0.00316 µM): 89.8%
viability, T/C (second compound 0.316 µM, first compound 0.01 µM): 84.8%
viability, T/C [13]: 87.4%
viability, T/C [14]: 75.7%
viability, T/C (second compound 1 µM, first compound 0.000316 µM): 99.2%
viability, T/C (second compound 1 µM, first compound 0.001 µM): 88%
viability, T/C (second compound 1 µM, first compound 0.00316 µM): 89.5%
viability, T/C (second compound 1 µM, first compound 0.01 µM): 95%
viability, T/C [19]: 92.2%
viability, T/C [20]: 81.7%
viability, T/C (second compound 3.16 µM, first compound 0.000316 µM): 97.8%
viability, T/C (second compound 3.16 µM, first compound 0.001 µM): 88%
viability, T/C (second compound 3.16 µM, first compound 0.00316 µM): 90%
viability, T/C (second compound 3.16 µM, first compound 0.01 µM): 87%
viability, T/C [25]: 83.9%
viability, T/C [26]: 83.7%
viability, T/C (second compound 10 µM, first compound 0.000316 µM): 105%
viability, T/C (second compound 10 µM, first compound 0.001 µM): 92.1%
viability, T/C (second compound 10 µM, first compound 0.00316 µM): 96.1%
viability, T/C (second compound 10 µM, first compound 0.01 µM): 92.2%
viability, T/C [31]: 92.4%
viability, T/C [32]: 84%
